Our source for the Activity, IC50 and inhibition values is ChEMBL document CHEMBL3244110, “Synthesis and biological evaluation of some 2-amino-4-aryl-3H-1,5-benzodiazepine analogues of clozapine” (J Med Chem, 1978).

The test system of data set [1] is Mus musculus. Nature of the data set: Antipsychotic activity in mouse assessed as increase in brain dopamine turnover at 25 to 30 mg/kg, ip pretreated with 200 mg/kg, ip alpha-methyl-p-tyrosine tyrosine hydroxylase inhibitor. The class given is functional, organism-based.
The test system of data set [2] is Mus musculus. Kind of data set: Antipsychotic activity in mouse assessed as protection against amphetamine-induced lethality at 5 mg/kg, ip treated 30 mins before amphetamine challenge. Also noted: dose 5 mg/kg. The class given is functional, organism-based.
Data set [3] has as its system Rattus norvegicus. Kind of data set: Antipsychotic activity in 0.2 mA footshock-induced conditioned stimulus rat assessed as decrease in avoidance response at 20 mg/kg, ip after 30 mins. Type of data set: functional, organism-based. Further details: dose 20 mg/kg.
The target of another data set is Adenylate cyclase. Kind of data set: Inhibition of dopamine-sensitive rat brain adenylyl cyclase activity assessed as cAMP level. (In general: Changes in cAMP serve as a functional read-out for many G protein-coupled receptors.)
Data set [4] deals with Rattus norvegicus. Kind of data set: Antipsychotic activity in 0.2 mA footshock-induced conditioned stimulus rat assessed as decrease in avoidance response at 5 mg/kg, ip after 30 mins. Also noted: dose 5 mg/kg. The class given is functional, organism-based.
For data set [5], the system named is Mus musculus. Nature of the data set: Antipsychotic activity in mouse assessed as protection against amphetamine-induced lethality at 50 mg/kg, ip treated 30 mins before amphetamine challenge. The class given is functional, organism-based. Further details: dose 50 mg/kg.
Data set [6] has as its target Adenylate cyclase (Rattus norvegicus) (UniProt D4A3N4+P26770+Q04400+P26769+Q03343+P40146+Q8CFM9+P21932). Nature of the data set: Inhibition of dopamine-sensitive rat brain adenylyl cyclase activity assessed as cAMP level at 10^-4 M.
Data set [7] deals with Mus musculus. Nature of the data set: Toxicity in mouse assessed as depression at 20 mg/kg, ip. Type of data set: organism-based. Also noted: dose 20 mg/kg, route intraperitoneal. As to conditions: in vivo.
For data set [8], the system named is Mus musculus. Nature of the data set: Toxicity in mouse assessed as tremors at 50 mg/kg, ip. The class given is organism-based. Also noted: dose 50 mg/kg, route intraperitoneal. As to conditions: in vivo.
In data set [9] the test system is Mus musculus. Kind of data set: Toxicity in mouse assessed as depression at 5 mg/kg, ip. The class given is organism-based. Also noted: dose 5 mg/kg, route intraperitoneal. The note with it: in vivo.
Data set [10] has as its system Mus musculus. Nature of the data set: Toxicity in mouse assessed as ptosis at 30 mg/kg, ip. The class given is organism-based. Also noted: dose 30 mg/kg, route intraperitoneal. The note with it: in vivo.
The test system of data set [11] is Mus musculus. Nature of the data set: Toxicity in mouse assessed as ptosis at 50 mg/kg, ip. Type of data set: organism-based. Also noted: dose 50 mg/kg, route intraperitoneal. As to conditions: in vivo.
For data set [12], the system named is Mus musculus. Kind of data set: Toxicity in mouse assessed as depression at 50 mg/kg, ip. The class given is organism-based. Also noted: dose 50 mg/kg, route intraperitoneal. The note with it: in vivo.

The source made the active and inactive calls. No cut-off for these calls is given here.

For `CN1CCN(C2=Nc3cc(Cl)ccc3Nc3ccccc32)CC1` [CLOZAPINE], the outcome in the data set with Mus musculus [1], in the data set on Mus musculus [2], with Rattus norvegicus [3], in the data set with Rattus norvegicus [4] and in the data set with Mus musculus [5] was Active. Further, the IC50 at Adenylate cyclase came to 1.4 ×10⁻⁷ M.
Take `Cc1cc2c(cc1C)N=C(N1CCN(C)CC1)CC(c1ccccc1)=N2`: the outcome in the data set on Mus musculus [1] and in the data set on Rattus norvegicus [3] was Active. In data set [6], the inhibition – broadly, how much of the control response was suppressed – was “inactive”. In addition, the result with Mus musculus [2], with Rattus norvegicus [4] and in the data set with Mus musculus [5] was inactive. The Activity result with Mus musculus [7] and with Mus musculus [8] was “Toxic” each time.
Take `Fc1ccc(C2=Nc3ccccc3N=C(N3CCC(c4ccccc4)CC3)C2)cc1`: the outcome in the data set on Mus musculus [1] and in the data set with Rattus norvegicus [3] was inactive. For the same molecule, the Activity result with Mus musculus [9] is reported as “Toxic”. Besides, the inhibition entry in data set [6] is “inactive”. Besides, the outcome with Mus musculus [2], in the data set on Rattus norvegicus [4] and with Mus musculus [5] was Active.
For `Cc1ccc(C2=CCN(C3=Nc4ccccc4N=C(c4ccccc4)C3)CC2)cc1`, the result with Mus musculus [1], in the data set on Rattus norvegicus [3], in the data set on Rattus norvegicus [4] and in the data set on Mus musculus [5] was Active. Moreover, the Activity entry with Mus musculus [9] and in the data set on Mus musculus [7] was “Toxic” each time. Also, the inhibition in [6] was determined as 27%. In addition, in the data set with Mus musculus [2], the outcome was inactive.
Consider `Clc1ccc(C2CCN(C3=Nc4ccccc4N=C(c4ccccc4)C3)CC2)cc1`, for which the outcome in the data set on Mus musculus [1], in the data set on Rattus norvegicus [3], with Rattus norvegicus [4] and with Mus musculus [5] was inactive. For the same molecule, the Activity result in the data set on Mus musculus [10] was “Toxic”. Also, the result in the data set on Mus musculus [2] was Active.
Take `c1ccc(C2=Nc3ccccc3N=C(N3CCC(c4ccccc4)CC3)C2)cc1`: the result with Mus musculus [1], with Mus musculus [2] and in the data set with Mus musculus [5] was Active. The outcome in the data set on Rattus norvegicus [3] and with Rattus norvegicus [4] was inactive. The IC50 at Adenylate cyclase is 4.5 ×10⁻⁵ M. Besides, in the data set with Mus musculus [11], the Activity result is “Toxic”.
On to `CN1CCN(C2=Nc3ccccc3N=C(c3ccc(F)cc3)C2)CC1`, for which the result in the data set on Mus musculus [1] and in the data set on Rattus norvegicus [3] was Active. The inhibition in data set [6] was 46%. Also, the result in the data set with Mus musculus [2], with Rattus norvegicus [4] and in the data set on Mus musculus [5] was inactive. For the same molecule, the Activity result in the data set with Mus musculus [7], with Mus musculus [12] and in the data set on Mus musculus [11] was “Toxic” each time.
